According to ChEMBL document CHEMBL5728229, “Halo-substituted piperidines as orexin receptor modulators” (2021):

Columns and labels:
[1] = target: T1, Orexin/Hypocretin receptor type 1 (Homo sapiens, UniProt O43613); experiment: (§1) Orexin Receptor Cell-Based Functional Assay: Measurement of [Ca2+]i using a FLIPR: CHO—OX1 or CHO—OX2 cells were seeded into black-walled clear-base 384-well plates (Corning, catalog #3712) at a density of 20,000 cells per well in F12-K medium supplemented with 10% FBS and then incubated in a 5% CO2, 37° C. incubator overnight to reach 90% confluency. The cells were incubated with equal volume of calcium 6 loading buffer (Molecular Devices, Inc.) containing 2.5 mM probenecid at 37° C. for 2 h, followed by test compounds (dose-range 0.1 nM-10 μM) for another 30 min. The plates were then placed into a FLIPR (Molecular Devices, Inc.) to monitor fluorescence (λ excitation 488 nm, λ emission 540 nm) before and after the addition of EC90 of [OX].
T1 sequence (O43613 whole entry): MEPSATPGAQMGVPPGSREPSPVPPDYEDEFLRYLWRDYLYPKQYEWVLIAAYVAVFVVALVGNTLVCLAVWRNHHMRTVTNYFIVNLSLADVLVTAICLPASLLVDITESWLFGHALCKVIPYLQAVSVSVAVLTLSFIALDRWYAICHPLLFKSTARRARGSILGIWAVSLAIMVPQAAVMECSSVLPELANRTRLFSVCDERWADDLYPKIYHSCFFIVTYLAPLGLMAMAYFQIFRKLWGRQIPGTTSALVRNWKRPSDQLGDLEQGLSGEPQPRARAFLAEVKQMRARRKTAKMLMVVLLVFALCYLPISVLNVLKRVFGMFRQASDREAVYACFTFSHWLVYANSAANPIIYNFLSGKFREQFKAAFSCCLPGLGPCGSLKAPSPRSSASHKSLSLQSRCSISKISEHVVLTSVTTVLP

Orexin receptor type 2 = target: T2, Orexin receptor type 2 (Homo sapiens, UniProt O43614); experiment: as §1
T2 sequence (O43614 whole entry): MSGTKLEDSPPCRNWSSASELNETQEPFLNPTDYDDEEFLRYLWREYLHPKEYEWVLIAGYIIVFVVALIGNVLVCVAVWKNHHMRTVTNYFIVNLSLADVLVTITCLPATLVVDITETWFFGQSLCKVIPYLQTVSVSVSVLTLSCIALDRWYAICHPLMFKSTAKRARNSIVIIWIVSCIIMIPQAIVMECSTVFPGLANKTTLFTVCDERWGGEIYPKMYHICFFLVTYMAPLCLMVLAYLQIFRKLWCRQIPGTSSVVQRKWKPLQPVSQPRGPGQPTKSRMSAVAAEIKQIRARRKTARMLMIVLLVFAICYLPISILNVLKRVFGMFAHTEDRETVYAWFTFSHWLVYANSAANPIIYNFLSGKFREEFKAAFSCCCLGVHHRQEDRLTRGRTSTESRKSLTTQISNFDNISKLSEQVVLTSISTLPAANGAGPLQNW

SMILES: C[C@@H]1CC(F)(F)CN(C(=O)c2nn(C)cc2-c2ncc(F)cn2)[C@@H]1COc1cnc(C(F)(F)F)cn1
- IC50 [1]: 1000 nM

SMILES: C[C@@H]1CC(F)(F)CN(C(=O)c2nn(C)cc2-c2ccccc2)[C@@H]1COc1ccc(C(F)(F)F)cn1
- IC50 (Orexin receptor type 2): > 5000 nM
- IC50 [1]: 8 nM

SMILES: C[C@@H]1CC(F)(F)CN(C(=O)c2nn(C)cc2-c2ncc(F)cn2)[C@@H]1COc1ncc(C(F)(F)F)cc1F
- IC50 [1]: 1000 nM
